Measured values published in patent US7351408B2 (priority 1997, dated 2008).

Tests used:
Type in all cases: cell-based, human
[1] = test system: HeLa cells
[2] = test system: HL-60 cells
[3] = test system: Jurkat cells
[4] = test system: Jurkat cells; assay: Cell morphology and rate of cell growth during prolonged treatment; settings: up to 6 weeks
From the text: We have also determined the quantitative and physiological limits to the cell surface expression of reactive functional groups. […] At saturation, we calculated the number of ketones accessible to chemoselective ligation and flow cytometry analysis to be approximately 1.8×10^6 per cell (32). No effects on cell morphology or the rate of cell growth were observed during prolonged (up to 6 weeks) treatment with ManLev.

[5] = test system: Jurkat cells; assay: Normal sialic acid released by sialidase digestion, quantified by HPAEC
From the text: We therefore evaluated the effects of ManLev treatment on the amount of normal sialic acid on Jurkat cells, expecting a reduction.

| Compound | increase in fluorescence above the background level (ketone expression) [1] | increase in fluorescence above the background level (ketone expression) [2] | effect on ketone expression resulting from ManLev treatment [3] | increase in fluorescence above the background level (ketone expression) [3] | dose dependence of ketone expression [3] | number of ketones accessible to chemoselective ligation and flow cytometry analysis [3] | effects on cell morphology or the rate of cell growth [4] | amount of sialic acid released by sialidase digestion, lower than that from ManNAc-treated cells [5] | effect on ketone expression resulting from ManLev treatment [1] | effect on ketone expression resulting from ManLev treatment [2] |
| --- | --- | --- | --- | --- | --- | --- | --- | --- | --- | --- |
| CC(=O)N[C@@H]1C(O)O[C@H](CO)[C@@H](O)[C@@H]1O (stereo partly drawn) [ManNAc, N-Acetylmannosamine, reference compound] | only a background level of fluorescence | only a background level of fluorescence | inhibited | only a background level of fluorescence |  |  |  |  |  |  |
| CC(=O)CCC(=O)N[C@@H]1C(O)O[C@H](CO)[C@@H](O)[C@@H]1O (stereo partly drawn) [ManLev, N-levulinoyl mannosamine] | ≤ 30 fold | ≤ 30 fold |  | ≤ 30 fold | dose dependent and saturable | approximately 1.8×10^6 per cell | No effects | approximately 10 fold |  |  |
| CC(=O)CCC(=O)N[C@H]1C(O)O[C@H](CO)[C@@H](O)[C@@H]1O (stereo partly drawn) [GlcLev, N-levulinoyl glucosamine] |  |  |  | only background fluorescence |  |  |  |  |  |  |
| tunicamycin |  |  | inhibited by tunicamycin in a dose-dependent fashion |  |  |  |  |  | unaffected | unaffected |
